Measured values published in publication PMC11397024, “Strategic Fluorination to Achieve a Potent, Selective, Metabolically Stable, and Orally Bioavailable Inhibitor of CSNK2” (Molecules, 2024).

What was measured:
[1] = Liver microsomal stability, human; format: in vitro ADME; conditions: pH 7.4, human liver microsomes, five time points over 1 h, read-out: HLM CLint
[2] = target: T1, DYRK1A (Homo sapiens, UniProt Q13627); assay: NanoBRET dose-response DYRK1A; format: cell-based; conditions: IC50 not determined, poor assay window
T1 construct: purchased Promega (NanoBRET Target Engagement K192 Kinase Selectivity System)

[3] = target: T2, EPHA6 (Homo sapiens, UniProt Q9UF33); assay: NanoBRET K192; format: cell-based; conditions: HEK293
T2 construct: purchased Promega (NanoBRET Target Engagement K192 Kinase Selectivity System)
How it was run: (§1)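 HEK293 cells were transfected overnight with NanoLuc–kinase fusion vectors, then treated for 2 h at 37 °C with compound (added as 100 μM working solution) plus K10 tracer. BRET was read at 450/610 nm after substrate and extracellular inhibitor, and fractional occupancy was calculated against no-compound controls.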

[4] = target: T3, RON (Homo sapiens, UniProt Q04912); assay: NanoBRET K192; format: cell-based; conditions: HEK293
T3 construct: purchased Promega (NanoBRET Target Engagement K192 Kinase Selectivity System)
How it was run: as §1

[5] = target: T4, JNK3 (Homo sapiens, UniProt P53779); assay: NanoBRET K192; format: cell-based; conditions: HEK293
T4 construct: purchased Promega (NanoBRET Target Engagement K192 Kinase Selectivity System)
How it was run: as §1

[6] = target: T5, TEC (Homo sapiens, UniProt P42680); assay: NanoBRET K192; format: cell-based; conditions: HEK293
T5 construct: purchased Promega (NanoBRET Target Engagement K192 Kinase Selectivity System)
How it was run: as §1

[7] = target: T6, FGFR4 (Homo sapiens, UniProt P22455); assay: NanoBRET K192; format: cell-based; conditions: HEK293
T6 construct: purchased Promega (NanoBRET Target Engagement K192 Kinase Selectivity System)
How it was run: as §1

[8] = target: T7, LRRK2 (Homo sapiens, UniProt Q5S007); assay: NanoBRET K192; format: cell-based; conditions: HEK293
T7 construct: purchased Promega (NanoBRET Target Engagement K192 Kinase Selectivity System)
How it was run: as §1

[9] = target: T8, MUSK (Homo sapiens, UniProt O15146); assay: NanoBRET K192; format: cell-based; conditions: HEK293
T8 construct: purchased Promega (NanoBRET Target Engagement K192 Kinase Selectivity System)
How it was run: as §1

[10] = target: T9, CAMK2A (Homo sapiens, UniProt Q9UQM7); assay: NanoBRET K192; format: cell-based; conditions: HEK293
T9 construct: purchased Promega (NanoBRET Target Engagement K192 Kinase Selectivity System)
How it was run: as §1

[11] = target: T10, TYRO3 (Homo sapiens, UniProt Q06418); assay: NanoBRET K192; format: cell-based; conditions: HEK293
T10 construct: purchased Promega (NanoBRET Target Engagement K192 Kinase Selectivity System)
T10 sequence (Q06418 41-890): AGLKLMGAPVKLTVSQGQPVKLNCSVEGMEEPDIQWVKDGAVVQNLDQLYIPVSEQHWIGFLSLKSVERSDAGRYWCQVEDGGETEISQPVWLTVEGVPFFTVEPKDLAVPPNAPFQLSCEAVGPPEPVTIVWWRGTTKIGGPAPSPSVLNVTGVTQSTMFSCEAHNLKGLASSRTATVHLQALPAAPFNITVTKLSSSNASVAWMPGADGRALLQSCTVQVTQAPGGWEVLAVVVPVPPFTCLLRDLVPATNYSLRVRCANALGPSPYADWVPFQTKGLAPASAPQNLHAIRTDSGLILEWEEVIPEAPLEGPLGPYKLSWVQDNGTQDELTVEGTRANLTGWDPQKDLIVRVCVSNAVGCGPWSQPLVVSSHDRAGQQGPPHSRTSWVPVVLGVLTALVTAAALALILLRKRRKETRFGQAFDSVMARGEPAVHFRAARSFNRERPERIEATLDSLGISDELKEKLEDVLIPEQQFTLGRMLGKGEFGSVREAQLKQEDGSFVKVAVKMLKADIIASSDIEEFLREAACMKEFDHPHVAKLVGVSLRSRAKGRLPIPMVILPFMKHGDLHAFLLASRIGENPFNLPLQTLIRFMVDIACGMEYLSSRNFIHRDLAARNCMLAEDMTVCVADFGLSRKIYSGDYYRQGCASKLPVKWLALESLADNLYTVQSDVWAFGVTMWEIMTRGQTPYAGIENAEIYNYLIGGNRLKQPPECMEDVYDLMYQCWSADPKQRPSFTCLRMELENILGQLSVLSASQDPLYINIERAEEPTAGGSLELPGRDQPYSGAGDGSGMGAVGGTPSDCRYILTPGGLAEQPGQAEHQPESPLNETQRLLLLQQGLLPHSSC
How it was run: as §1

[12] = target: T11, BRSK2 (Homo sapiens, UniProt Q8IWQ3); assay: NanoBRET K192; format: cell-based; conditions: HEK293
T11 construct: purchased Promega (NanoBRET Target Engagement K192 Kinase Selectivity System)
How it was run: as §1

[13] = target: T12, CDKL3 (Homo sapiens, UniProt Q8IVW4); assay: NanoBRET K192; format: cell-based; conditions: HEK293
T12 construct: purchased Promega (NanoBRET Target Engagement K192 Kinase Selectivity System)
How it was run: as §1

[14] = target: T13, ERN2 (Homo sapiens, UniProt Q76MJ5); assay: NanoBRET K192; format: cell-based; conditions: HEK293
T13 construct: purchased Promega (NanoBRET Target Engagement K192 Kinase Selectivity System)
T13 sequence (Q76MJ5 35-926): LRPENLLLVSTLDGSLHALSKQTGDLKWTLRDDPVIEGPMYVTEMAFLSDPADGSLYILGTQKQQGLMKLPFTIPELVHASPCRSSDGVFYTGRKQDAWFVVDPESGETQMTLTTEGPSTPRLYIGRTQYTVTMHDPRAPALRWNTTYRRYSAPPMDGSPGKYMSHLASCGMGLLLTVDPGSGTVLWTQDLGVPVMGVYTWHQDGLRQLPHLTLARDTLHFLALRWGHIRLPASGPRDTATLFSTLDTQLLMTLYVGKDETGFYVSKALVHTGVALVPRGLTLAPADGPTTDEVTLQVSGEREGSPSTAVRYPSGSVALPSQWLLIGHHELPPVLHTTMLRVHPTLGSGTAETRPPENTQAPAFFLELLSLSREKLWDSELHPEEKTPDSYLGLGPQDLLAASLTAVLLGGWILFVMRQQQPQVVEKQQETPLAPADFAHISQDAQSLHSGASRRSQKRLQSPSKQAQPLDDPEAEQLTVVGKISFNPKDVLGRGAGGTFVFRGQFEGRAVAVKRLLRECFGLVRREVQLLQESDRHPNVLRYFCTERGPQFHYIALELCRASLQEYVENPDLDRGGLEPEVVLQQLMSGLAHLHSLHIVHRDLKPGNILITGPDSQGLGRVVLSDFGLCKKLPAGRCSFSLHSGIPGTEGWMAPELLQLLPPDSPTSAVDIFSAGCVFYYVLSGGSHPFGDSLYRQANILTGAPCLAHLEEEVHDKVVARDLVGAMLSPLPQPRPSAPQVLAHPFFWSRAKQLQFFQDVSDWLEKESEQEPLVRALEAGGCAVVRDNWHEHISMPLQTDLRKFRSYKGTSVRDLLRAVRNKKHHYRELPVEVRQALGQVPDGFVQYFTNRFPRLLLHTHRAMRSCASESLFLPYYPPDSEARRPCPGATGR
How it was run: as §1

[15] = target: T14, MAP3K12 (Homo sapiens, UniProt Q12852); assay: NanoBRET K192; format: cell-based; conditions: HEK293
T14 construct: purchased Promega (NanoBRET Target Engagement K192 Kinase Selectivity System)
How it was run: as §1

[16] = target: T15, CLK4 (Homo sapiens, UniProt Q9HAZ1); assay: NanoBRET K192; format: cell-based
T15 construct: expressed in transfected cells; host or cells: HEK293
T15 sequence (Q9HAZ1 whole entry): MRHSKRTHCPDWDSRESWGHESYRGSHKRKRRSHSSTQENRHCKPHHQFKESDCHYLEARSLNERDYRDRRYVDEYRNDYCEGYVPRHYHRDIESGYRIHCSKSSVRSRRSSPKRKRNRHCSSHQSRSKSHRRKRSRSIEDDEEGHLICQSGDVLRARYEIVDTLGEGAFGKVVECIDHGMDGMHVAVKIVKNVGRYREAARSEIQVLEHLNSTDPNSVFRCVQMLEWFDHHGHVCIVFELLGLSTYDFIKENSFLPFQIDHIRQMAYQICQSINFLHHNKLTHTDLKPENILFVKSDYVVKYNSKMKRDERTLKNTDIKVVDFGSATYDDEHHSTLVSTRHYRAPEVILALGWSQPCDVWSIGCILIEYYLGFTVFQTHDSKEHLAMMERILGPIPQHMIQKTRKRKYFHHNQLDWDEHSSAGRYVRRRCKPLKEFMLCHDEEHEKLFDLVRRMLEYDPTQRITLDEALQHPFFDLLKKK
How it was run: as §1

[17] = target: T16, NUAK1 (Homo sapiens, UniProt O60285); assay: NanoBRET K192; format: cell-based; conditions: HEK293
T16 construct: purchased Promega (NanoBRET Target Engagement K192 Kinase Selectivity System)
How it was run: as §1

[18] = target: T17, LTK (Homo sapiens, UniProt P29376); assay: NanoBRET K192; format: cell-based; conditions: HEK293
T17 construct: purchased Promega (NanoBRET Target Engagement K192 Kinase Selectivity System)
How it was run: as §1

[19] = target: T18, SLK (Homo sapiens, UniProt Q9H2G2); assay: NanoBRET K192; format: cell-based; conditions: HEK293
T18 construct: purchased Promega (NanoBRET Target Engagement K192 Kinase Selectivity System)
How it was run: as §1

[20] = target: T19, SRMS (Homo sapiens, UniProt Q9H3Y6); assay: NanoBRET K192; format: cell-based; conditions: HEK293
T19 construct: purchased Promega (NanoBRET Target Engagement K192 Kinase Selectivity System)
How it was run: as §1

[21] = target: T20, CSNK1G2 (Homo sapiens, UniProt P78368); assay: NanoBRET K192; format: cell-based; conditions: HEK293
T20 construct: purchased Promega (NanoBRET Target Engagement K192 Kinase Selectivity System)
T20 sequence (P78368 whole entry): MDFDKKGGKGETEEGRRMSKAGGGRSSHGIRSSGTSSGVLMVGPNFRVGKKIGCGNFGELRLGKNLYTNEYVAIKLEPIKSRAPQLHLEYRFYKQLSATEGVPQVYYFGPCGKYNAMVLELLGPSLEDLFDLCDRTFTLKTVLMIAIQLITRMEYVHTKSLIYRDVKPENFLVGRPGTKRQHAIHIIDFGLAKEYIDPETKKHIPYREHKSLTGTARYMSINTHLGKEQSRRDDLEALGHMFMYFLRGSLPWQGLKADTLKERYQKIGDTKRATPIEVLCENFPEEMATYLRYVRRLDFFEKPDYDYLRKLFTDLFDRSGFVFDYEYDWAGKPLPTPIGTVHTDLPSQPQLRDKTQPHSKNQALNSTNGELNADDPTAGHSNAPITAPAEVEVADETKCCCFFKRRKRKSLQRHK
How it was run: as §1

[22] = target: T21, CDK9 + K (Homo sapiens, UniProt P50750); assay: NanoBRET K192; format: cell-based; conditions: HEK293
T21 construct: purchased Promega (NanoBRET Target Engagement K192 Kinase Selectivity System)
T21 sequence (P50750 whole entry): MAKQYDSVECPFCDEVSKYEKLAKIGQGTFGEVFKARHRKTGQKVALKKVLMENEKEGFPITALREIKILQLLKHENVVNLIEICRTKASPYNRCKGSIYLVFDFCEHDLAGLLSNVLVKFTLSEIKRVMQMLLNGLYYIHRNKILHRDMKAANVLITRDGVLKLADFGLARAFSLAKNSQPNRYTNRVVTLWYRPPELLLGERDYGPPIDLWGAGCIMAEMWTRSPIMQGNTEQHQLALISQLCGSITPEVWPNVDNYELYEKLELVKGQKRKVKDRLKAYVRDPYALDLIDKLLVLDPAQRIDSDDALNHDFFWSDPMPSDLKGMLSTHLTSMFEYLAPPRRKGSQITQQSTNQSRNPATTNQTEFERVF
T21 sequence (O75909 whole entry partner): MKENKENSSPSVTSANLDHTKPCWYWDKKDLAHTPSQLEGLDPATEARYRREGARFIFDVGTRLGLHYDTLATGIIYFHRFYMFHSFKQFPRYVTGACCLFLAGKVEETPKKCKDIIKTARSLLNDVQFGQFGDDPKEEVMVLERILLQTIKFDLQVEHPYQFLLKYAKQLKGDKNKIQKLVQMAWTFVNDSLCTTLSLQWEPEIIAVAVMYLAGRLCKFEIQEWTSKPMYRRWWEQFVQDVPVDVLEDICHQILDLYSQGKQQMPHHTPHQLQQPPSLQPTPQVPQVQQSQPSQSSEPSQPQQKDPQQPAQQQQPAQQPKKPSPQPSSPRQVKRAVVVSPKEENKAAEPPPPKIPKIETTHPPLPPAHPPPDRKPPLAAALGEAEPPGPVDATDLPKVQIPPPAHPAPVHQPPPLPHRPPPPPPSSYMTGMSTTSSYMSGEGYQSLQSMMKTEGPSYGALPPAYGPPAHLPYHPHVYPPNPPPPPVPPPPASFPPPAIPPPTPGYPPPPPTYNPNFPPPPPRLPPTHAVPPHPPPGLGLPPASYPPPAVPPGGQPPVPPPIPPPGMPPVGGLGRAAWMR
How it was run: as §1

[23] = target: T22, PHKG2 (Homo sapiens, UniProt P15735); assay: NanoBRET K192; format: cell-based; conditions: HEK293
T22 construct: purchased Promega (NanoBRET Target Engagement K192 Kinase Selectivity System)
How it was run: as §1

[24] = target: T23, NLK (Homo sapiens, UniProt Q9UBE8); assay: NanoBRET K192; format: cell-based; conditions: HEK293
T23 construct: purchased Promega (NanoBRET Target Engagement K192 Kinase Selectivity System)
How it was run: as §1

[25] = target: T24, WEE1 (Homo sapiens, UniProt P30291); assay: NanoBRET K192; format: cell-based; conditions: HEK293
T24 construct: purchased Promega (NanoBRET Target Engagement K192 Kinase Selectivity System)
How it was run: as §1

[26] = target: T25, LATS2 (Homo sapiens, UniProt Q9NRM7); assay: NanoBRET K192; format: cell-based; conditions: HEK293
T25 construct: purchased Promega (NanoBRET Target Engagement K192 Kinase Selectivity System)
T25 sequence (Q9NRM7 whole entry): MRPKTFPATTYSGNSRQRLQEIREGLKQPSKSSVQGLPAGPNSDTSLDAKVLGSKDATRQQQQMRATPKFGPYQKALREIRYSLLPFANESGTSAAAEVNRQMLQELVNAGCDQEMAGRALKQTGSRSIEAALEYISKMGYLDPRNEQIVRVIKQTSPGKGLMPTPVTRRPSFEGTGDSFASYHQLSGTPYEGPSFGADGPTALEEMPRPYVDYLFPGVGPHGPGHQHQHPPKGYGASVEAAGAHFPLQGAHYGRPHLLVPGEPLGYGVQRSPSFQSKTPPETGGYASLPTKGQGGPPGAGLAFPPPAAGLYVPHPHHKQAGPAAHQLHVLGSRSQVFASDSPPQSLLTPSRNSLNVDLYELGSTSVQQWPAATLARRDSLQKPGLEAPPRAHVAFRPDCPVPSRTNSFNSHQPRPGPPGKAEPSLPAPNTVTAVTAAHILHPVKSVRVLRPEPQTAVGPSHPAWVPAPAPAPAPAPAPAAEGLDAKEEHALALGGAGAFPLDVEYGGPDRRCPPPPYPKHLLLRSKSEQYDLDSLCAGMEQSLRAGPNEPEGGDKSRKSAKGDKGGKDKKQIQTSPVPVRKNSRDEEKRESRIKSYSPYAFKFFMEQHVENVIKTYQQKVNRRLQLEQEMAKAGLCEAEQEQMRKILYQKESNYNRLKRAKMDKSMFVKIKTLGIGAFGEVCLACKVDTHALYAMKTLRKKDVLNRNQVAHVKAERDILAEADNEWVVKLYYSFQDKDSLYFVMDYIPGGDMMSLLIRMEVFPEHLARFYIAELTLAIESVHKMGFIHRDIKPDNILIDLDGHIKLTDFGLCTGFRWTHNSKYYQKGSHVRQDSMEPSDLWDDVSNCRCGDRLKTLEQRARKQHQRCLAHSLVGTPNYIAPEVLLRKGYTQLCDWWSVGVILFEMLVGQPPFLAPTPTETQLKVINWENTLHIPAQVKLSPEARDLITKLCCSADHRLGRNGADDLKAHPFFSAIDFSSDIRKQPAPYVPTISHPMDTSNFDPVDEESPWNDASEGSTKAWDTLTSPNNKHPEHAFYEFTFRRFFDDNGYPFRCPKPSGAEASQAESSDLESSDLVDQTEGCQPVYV
How it was run: as §1

[27] = target: T26, IKBKE (Homo sapiens, UniProt Q14164); assay: NanoBRET K192; format: cell-based; conditions: HEK293
T26 construct: purchased Promega (NanoBRET Target Engagement K192 Kinase Selectivity System)
How it was run: as §1

[28] = target: T27, GAK (Homo sapiens, UniProt O14976); assay: NanoBRET K192; format: cell-based; conditions: HEK293
T27 construct: purchased Promega (NanoBRET Target Engagement K192 Kinase Selectivity System)
How it was run: as §1

Compound: CCC(=O)Nc1cc(Nc2cc(NC3CC3)n3ncc(C#N)c3n2)c(F)cc1N1CCC[C@H](NC)C1 [Compound 2, (S)-N-(5-((3-cyano-7-(cyclopropylamino)pyrazolo[1,5-a]pyrimidin-5-yl)amino)-4-fluoro-2-(3-(methylamino)piperidin-1-yl)phenyl)propionamide]
- CLint scaled at 5 μM [1]: 12.9 mL/min/kg
- occupancy in the dose-response experiment [2]: no occupancy was observed up to 10 μM
- receptor occupancy at 10 µM [3]: 7.3%
- receptor occupancy at 10 µM [4]: 7.6%
- receptor occupancy at 10 µM [5]: 1%
- receptor occupancy at 10 µM [6]: 9.1%
- receptor occupancy at 10 µM [7]: 8.2%
- receptor occupancy at 10 µM [8]: -1.5%
- receptor occupancy at 10 µM [9]: -0.5%
- receptor occupancy at 10 µM [10]: 12.4%
- receptor occupancy at 10 µM [11]: 3.9%
- receptor occupancy at 10 µM [12]: 13.6%
- receptor occupancy at 10 µM [13]: 19.4%
- receptor occupancy at 10 µM [14]: 9.2%
- receptor occupancy at 10 µM [15]: -0.1%
- % occupancy at 10 μM ([16]; CLK4, HEK293): 74%
- receptor occupancy at 10 µM ([16]; HEK293, CLK4): 73.8%
- receptor occupancy at 10 µM [17]: -1.7%
- receptor occupancy at 10 µM [18]: 4.2%
- receptor occupancy at 10 µM [19]: 6.6%
- receptor occupancy at 10 µM [20]: 7.4%
- receptor occupancy at 10 µM [21]: 21.8%
- receptor occupancy at 10 µM [22]: 19.8%
- receptor occupancy at 10 µM [23]: 29.7%
- receptor occupancy at 10 µM [24]: 11.9%
- receptor occupancy at 10 µM [25]: 17.8%
- receptor occupancy at 10 µM [26]: 9.4%
- receptor occupancy at 10 µM [27]: 23.4%
- receptor occupancy at 10 µM [28]: 3.3%
